Patent US20080009418A1, “Selective Inhibitors” (Alchemia LTD., priority 2004, published 2008)

Legend:
[1] = target: T1, Human δ-opioid (DOP) (Homo sapiens, UniProt P41143); assay: Radioligand binding, human δ-opioid (DOP) membranes, FlashPlate, [3H]-Bremazocine; conditions: compound at 10 μM, [3H]-Bremazocine
T1 construct: purchased Perkin Elmer Biosignal
In short: (§1)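 Cloned human receptor membranes were coated onto FlashPlate wells and incubated with radioligand and compound (added from a 0.5 mM DMSO daughter plate) for 1 hour at room temperature in the dark. Scintillation counting gave percent inhibition, with DMSO defining total and reference ligand defining non-specific binding.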

[2] = target: T2, Human κ-Opioid (KOP) (Homo sapiens, UniProt P41145); assay: Radioligand binding, human κ-opioid (KOP) membranes, filtration, [3H]-Diprenorphine; conditions: compound at 10 μM, [3H]-Diprenorphine
T2 construct: purchased Perkin Elmer Biosignal
T2 sequence (P41145 whole entry): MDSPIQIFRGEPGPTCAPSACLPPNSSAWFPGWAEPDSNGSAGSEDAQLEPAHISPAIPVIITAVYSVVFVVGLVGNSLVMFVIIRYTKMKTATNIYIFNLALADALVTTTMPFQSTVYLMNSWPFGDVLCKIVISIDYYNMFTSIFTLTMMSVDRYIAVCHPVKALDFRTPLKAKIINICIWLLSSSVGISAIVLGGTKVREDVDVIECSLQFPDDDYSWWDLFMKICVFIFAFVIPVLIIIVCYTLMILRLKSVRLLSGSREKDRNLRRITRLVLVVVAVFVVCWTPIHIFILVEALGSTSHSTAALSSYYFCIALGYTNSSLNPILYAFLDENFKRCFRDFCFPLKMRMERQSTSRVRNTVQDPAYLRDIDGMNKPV
In short: (§2)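 Membranes from cloned human receptors were incubated with compound and radioligand for 1 hour at room temperature. Bound ligand was collected on 0.3% PEI-soaked filters, washed with cold 50 mM Tris-HCl pH 7.4, and counted by scintillation. Percent inhibition was computed against DMSO totals and reference-ligand nonspecific wells.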

[3] = target: T3, Human Melanocortin (MC3) (Homo sapiens, UniProt P41968); assay: Radioligand binding, human melanocortin MC3 membranes, FlashPlate, [125I]-NDP-αMSH; conditions: compound at 10 μM, [125I]-NDP-αMSH
T3 construct: purchased Perkin Elmer Biosignal
T3 sequence (P41968 whole entry): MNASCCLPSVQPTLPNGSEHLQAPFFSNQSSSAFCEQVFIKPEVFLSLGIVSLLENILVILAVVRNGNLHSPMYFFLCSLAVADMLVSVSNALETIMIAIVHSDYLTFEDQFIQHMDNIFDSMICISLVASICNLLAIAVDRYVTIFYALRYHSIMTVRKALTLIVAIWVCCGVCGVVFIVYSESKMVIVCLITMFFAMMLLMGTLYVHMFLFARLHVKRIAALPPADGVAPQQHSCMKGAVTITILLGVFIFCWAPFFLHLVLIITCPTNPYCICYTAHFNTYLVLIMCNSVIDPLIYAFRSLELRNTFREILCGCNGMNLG
In short: as §1

[4] = target: T4, Human Melanocortin (MC4) (Homo sapiens, UniProt P32245); assay: Radioligand binding, human melanocortin MC4 membranes, FlashPlate, [125I]-NDP-αMSH; conditions: compound at 10 μM, [125I]-NDP-αMSH
T4 construct: purchased Perkin Elmer Biosignal
T4 sequence (P32245 whole entry): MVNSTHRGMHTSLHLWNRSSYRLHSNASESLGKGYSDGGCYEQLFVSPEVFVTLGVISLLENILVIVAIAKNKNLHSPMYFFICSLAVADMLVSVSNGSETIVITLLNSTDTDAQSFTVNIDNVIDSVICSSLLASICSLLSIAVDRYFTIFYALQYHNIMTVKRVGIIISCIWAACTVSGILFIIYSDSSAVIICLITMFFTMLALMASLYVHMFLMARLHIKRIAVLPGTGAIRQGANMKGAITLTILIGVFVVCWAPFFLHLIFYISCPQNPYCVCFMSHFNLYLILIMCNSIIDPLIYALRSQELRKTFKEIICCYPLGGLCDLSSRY
In short: as §1

[5] = target: T5, Human melanocortin (MC5) (Homo sapiens, UniProt P33032); assay: Radioligand binding, human melanocortin MC5 membranes, FlashPlate, [125I]-NDP-αMSH; conditions: compound at 10 μM, [125I]-NDP-αMSH
T5 construct: purchased Perkin Elmer Biosignal
T5 sequence (P33032 whole entry): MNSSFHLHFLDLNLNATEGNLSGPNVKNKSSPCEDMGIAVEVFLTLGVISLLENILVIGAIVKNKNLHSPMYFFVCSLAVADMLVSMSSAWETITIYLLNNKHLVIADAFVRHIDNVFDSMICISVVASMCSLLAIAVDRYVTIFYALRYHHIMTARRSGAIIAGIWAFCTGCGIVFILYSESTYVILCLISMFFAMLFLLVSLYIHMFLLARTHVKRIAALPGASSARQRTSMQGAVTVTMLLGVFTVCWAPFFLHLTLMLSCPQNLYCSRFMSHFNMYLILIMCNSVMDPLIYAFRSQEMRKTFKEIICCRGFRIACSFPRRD
In short: as §1

[6] = target: T6, Human melanin-concentrating hormone (MCH1) (Homo sapiens, UniProt Q99705); assay: Radioligand binding, human melanin-concentrating hormone MCH1 membranes, FlashPlate, [125I]-S36057; conditions: compound at 10 μM
T6 construct: purchased Perkin Elmer Biosignal
T6 sequence (Q99705 whole entry): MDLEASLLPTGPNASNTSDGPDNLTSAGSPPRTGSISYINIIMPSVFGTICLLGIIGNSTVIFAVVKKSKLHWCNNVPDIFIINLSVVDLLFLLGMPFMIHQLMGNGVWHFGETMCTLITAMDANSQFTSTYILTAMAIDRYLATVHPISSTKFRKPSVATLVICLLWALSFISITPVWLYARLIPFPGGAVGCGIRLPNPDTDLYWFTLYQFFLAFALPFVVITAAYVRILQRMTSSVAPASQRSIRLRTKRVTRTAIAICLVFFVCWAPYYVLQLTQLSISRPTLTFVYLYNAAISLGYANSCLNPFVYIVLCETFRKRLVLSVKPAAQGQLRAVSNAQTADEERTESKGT
In short: as §1

[7] = target: T7, Human μ-opioid (MOP) (Homo sapiens, UniProt P35372); assay: Radioligand binding, human μ-opioid (MOP) membranes, FlashPlate, [3H]-Naloxone; conditions: compound at 10 μM, [3H]-Naloxone
T7 construct: purchased Perkin Elmer Biosignal
T7 sequence (P35372 whole entry): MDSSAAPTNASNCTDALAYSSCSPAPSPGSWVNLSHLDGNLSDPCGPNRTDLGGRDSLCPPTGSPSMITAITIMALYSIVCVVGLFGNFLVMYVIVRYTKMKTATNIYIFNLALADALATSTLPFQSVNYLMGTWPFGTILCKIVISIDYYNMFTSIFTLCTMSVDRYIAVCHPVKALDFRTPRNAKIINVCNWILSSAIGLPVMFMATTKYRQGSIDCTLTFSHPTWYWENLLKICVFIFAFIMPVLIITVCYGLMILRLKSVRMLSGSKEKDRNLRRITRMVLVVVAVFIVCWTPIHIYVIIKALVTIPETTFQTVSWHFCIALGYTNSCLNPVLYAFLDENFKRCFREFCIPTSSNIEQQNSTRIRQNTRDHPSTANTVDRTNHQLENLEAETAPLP
In short: as §1

[8] = target: T8, Human neurokinin (NK1) (Homo sapiens, UniProt P25103); assay: Radioligand binding, human neurokinin NK1 membranes, filtration, [125I]-Substance P; conditions: compound at 10 μM, [125I]-Substance P
T8 construct: purchased Perkin Elmer Biosignal
T8 sequence (P25103 whole entry): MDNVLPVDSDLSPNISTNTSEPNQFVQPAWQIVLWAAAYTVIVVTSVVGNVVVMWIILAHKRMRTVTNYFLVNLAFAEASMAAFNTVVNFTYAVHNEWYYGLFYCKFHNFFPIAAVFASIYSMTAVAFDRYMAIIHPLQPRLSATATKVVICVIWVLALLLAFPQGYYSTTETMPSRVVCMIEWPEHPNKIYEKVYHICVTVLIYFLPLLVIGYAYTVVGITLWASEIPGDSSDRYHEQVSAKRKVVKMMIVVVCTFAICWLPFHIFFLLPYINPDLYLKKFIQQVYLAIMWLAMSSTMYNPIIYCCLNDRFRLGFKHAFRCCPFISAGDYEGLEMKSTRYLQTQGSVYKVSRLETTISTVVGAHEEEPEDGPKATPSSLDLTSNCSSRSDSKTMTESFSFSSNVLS
In short: as §2

[9] = target: T9, Human neuropeptide Y (NPY-Y1) (Homo sapiens, UniProt P25929); assay: Radioligand binding, human neuropeptide Y NPY-Y1 membranes, FlashPlate, [125I]-PYY; conditions: compound at 10 μM, [125I]-PYY
T9 construct: purchased Perkin Elmer Biosignal
T9 sequence (P25929 1-384): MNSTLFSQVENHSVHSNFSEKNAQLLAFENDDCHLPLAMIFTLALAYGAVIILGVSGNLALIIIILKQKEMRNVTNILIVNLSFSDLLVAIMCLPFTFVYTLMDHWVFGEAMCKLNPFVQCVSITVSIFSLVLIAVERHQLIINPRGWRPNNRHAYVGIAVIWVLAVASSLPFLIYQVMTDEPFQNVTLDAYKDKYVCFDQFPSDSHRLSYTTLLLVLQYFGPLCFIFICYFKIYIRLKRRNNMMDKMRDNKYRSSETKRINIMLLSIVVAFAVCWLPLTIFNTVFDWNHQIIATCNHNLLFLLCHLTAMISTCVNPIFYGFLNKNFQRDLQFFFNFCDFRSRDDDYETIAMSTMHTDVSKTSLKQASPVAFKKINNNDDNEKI
In short: as §1

[10] = target: T10, Human opioid (ORL1) (Homo sapiens, UniProt P41146); assay: Radioligand binding, human opioid ORL1 membranes, FlashPlate, [125I]-Nociceptin; conditions: compound at 10 μM, [125I]-Nociceptin
T10 construct: purchased Perkin Elmer Biosignal
T10 sequence (P41146 whole entry): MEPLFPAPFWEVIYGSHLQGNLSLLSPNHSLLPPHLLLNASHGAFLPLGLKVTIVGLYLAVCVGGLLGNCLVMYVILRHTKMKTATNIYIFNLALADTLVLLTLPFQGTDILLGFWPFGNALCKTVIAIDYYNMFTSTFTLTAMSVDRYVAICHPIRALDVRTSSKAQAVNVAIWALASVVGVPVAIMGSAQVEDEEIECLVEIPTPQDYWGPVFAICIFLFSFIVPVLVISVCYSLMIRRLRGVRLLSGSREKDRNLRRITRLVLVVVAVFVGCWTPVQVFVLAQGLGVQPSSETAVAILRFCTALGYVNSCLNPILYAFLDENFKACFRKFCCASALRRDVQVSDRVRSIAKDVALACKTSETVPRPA
In short: as §1

[11] = target: T11, Mouse urotensin (mUR2) (Mus musculus, UniProt Q8VIH9); assay: Radioligand binding, mouse urotensin mUR2 membranes, FlashPlate, [125I]-Urotensin II; conditions: compound at 10 μM, [125I]-Urotensin II
T11 construct: purchased Perkin Elmer Biosignal
T11 sequence (Q8VIH9 1-385): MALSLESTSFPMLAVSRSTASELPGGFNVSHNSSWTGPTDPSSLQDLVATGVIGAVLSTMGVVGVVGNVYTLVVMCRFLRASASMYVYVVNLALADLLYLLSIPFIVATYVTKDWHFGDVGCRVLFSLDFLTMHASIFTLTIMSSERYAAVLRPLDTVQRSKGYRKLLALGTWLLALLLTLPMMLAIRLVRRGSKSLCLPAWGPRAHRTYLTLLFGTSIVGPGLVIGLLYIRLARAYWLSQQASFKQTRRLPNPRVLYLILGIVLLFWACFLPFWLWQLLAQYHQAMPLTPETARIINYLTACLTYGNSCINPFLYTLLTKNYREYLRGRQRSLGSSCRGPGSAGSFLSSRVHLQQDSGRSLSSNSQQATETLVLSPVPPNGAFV
In short: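 Cloned mouse urotensin (mUR2) receptor membranes from Perkin Elmer Biosignal were immobilized in FlashPlate microplates using a proprietary coating. Each well got 19.5 μl buffer, then 0.5 μl of DMSO, reference ligand, or compound. Adding 5 μl of [125I]-Urotensin II, diluted to 5× final concentration in binding buffer, started binding. Plates were sealed with TopSeal-A and incubated 1 hour at room temperature in the dark. Wells were counted for 30 seconds each on a TopCount after a 60-second delay, and percentage inhibition was calculated.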

T1 sequence (P41143 whole entry): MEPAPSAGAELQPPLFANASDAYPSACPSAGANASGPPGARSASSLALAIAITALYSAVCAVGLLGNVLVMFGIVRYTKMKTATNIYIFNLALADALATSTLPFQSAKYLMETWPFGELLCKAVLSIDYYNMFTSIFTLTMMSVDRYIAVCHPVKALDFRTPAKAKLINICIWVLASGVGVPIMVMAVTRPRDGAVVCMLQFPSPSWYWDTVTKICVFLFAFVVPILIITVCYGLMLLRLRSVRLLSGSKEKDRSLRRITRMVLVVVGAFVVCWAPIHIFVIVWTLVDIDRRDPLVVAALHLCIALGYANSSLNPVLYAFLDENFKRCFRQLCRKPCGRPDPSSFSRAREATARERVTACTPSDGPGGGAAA

| SMILES | A1 radioligand binding, percentage inhibition [1] | A2 radioligand binding, percentage inhibition [2] | A3 radioligand binding, percentage inhibition [3] | A4 radioligand binding, percentage inhibition [4] | A5 radioligand binding, percentage inhibition [5] | A6 radioligand binding, percentage inhibition ([6]; [125I]-S36057) | A7 radioligand binding, percentage inhibition [7] | A8 radioligand binding, percentage inhibition [8] | A9 radioligand binding, percentage inhibition [9] | A10 radioligand binding, percentage inhibition [10] | A11 radioligand binding, percentage inhibition [11] | further results |
| --- | --- | --- | --- | --- | --- | --- | --- | --- | --- | --- | --- | --- |
| COC[C@H]1OC(OCc2ccc(Cl)cc2)[C@H](NC(=O)CCCN)[C@@H](OCc2ccc3ccccc3c2)[C@@H]1O (single isomer, unassigned) [compound 344] | – | – | – | – | – | – | – | – | – | – | – | A1: inhibition of radioligand binding, human δ-opioid (DOP) [1]: − (“−” indicates less than 50% inhibition at 10 μM); A2: inhibition of radioligand binding, human κ-opioid (KOP) [2]: − (“−” indicates less than 50% inhibition at 10 μM); A3: inhibition of radioligand binding, human melanocortin (MC3) [3]: − (“−” indicates less than 50% inhibition at 10 μM); A4: inhibition of radioligand binding, human melanocortin (MC4) [4]: − (“−” indicates less than 50% inhibition at 10 μM); A5: inhibition of radioligand binding, human melanocortin (MC5) [5]: − (“−” indicates less than 50% inhibition at 10 μM); A6: inhibition of radioligand binding, human melanin-concentrating hormone (MCH1) ([6]; [125I]-S36057): − (“−” indicates less than 50% inhibition at 10 μM); A7: inhibition of radioligand binding, human μ-opioid (MOP) [7]: − (“−” indicates less than 50% inhibition at 10 μM); A8: inhibition of radioligand binding, human neurokinin (NK1) [8]: + (“+” indicates greater than 50% inhibition at 10 μM); A9: inhibition of radioligand binding, human neuropeptide Y (NPY-Y1) [9]: − (“−” indicates less than 50% inhibition at 10 μM); A10: inhibition of radioligand binding, human opioid (ORL1) [10]: − (“−” indicates less than 50% inhibition at 10 μM); A11: inhibition of radioligand binding, mouse urotensin (mUR2) [11]: − (“−” indicates less than 50% inhibition at 10 μM) |
| NCCCC(=O)NC1C(OCc2ccc3ccccc3c2)OC(COCc2ccc3ccccc3c2)C(O)C1OCc1ccc(Cl)cc1 (single isomer, unassigned) [compound 454] | – | – | – | – | – | – | – | – | – | – | – | A1: inhibition of radioligand binding ([1]; human DOP membranes): − (“−” indicates less than 50% inhibition at 10 μM); A2: inhibition of radioligand binding ([2]; human KOP membranes, 10 µM): − (“−” indicates less than 50% inhibition at 10 μM); A3: inhibition of radioligand binding ([3]; human MC3 membranes): + (“+” indicates greater than 50% inhibition at 10 μM); A4: inhibition of radioligand binding ([4]; human MC4 membranes): + (“+” indicates greater than 50% inhibition at 10 μM); A5: inhibition of radioligand binding ([5]; human MC5 membranes): + (“+” indicates greater than 50% inhibition at 10 μM); A6: inhibition of radioligand binding ([6]; [125I]-S36057, human MCH1 membranes): + (“+” indicates greater than 50% inhibition at 10 μM); A7: inhibition of radioligand binding ([7]; human MOP membranes, 10 µM): + (“+” indicates greater than 50% inhibition at 10 μM); A8: inhibition of radioligand binding ([8]; human NK1 membranes): + (“+” indicates greater than 50% inhibition at 10 μM); A9: inhibition of radioligand binding ([9]; human NPY-Y1 membranes): − (“−” indicates less than 50% inhibition at 10 μM); A10: inhibition of radioligand binding ([10]; human ORL1 membranes, 10 µM): + (“+” indicates greater than 50% inhibition at 10 μM); A11: inhibition of radioligand binding ([11]; mouse mUR2 membranes): − (“−” indicates less than 50% inhibition at 10 μM) |
| COC[C@H]1OC(OCc2ccc(Cl)cc2)[C@H](NC(=O)CCNC(=N)N)[C@@H](OCc2cccc(O)c2)[C@@H]1O (stereo partly shown) [compound 138] | + (“+” indicates greater than 50% inhibition at 10 μM) | − (“−” indicates less than 50% inhibition at 10 μM) | − (“−” indicates less than 50% inhibition at 10 μM) | − (“−” indicates less than 50% inhibition at 10 μM) | − (“−” indicates less than 50% inhibition at 10 μM) | − (“−” indicates less than 50% inhibition at 10 μM) | + (“+” indicates greater than 50% inhibition at 10 μM) | − (“−” indicates less than 50% inhibition at 10 μM) | − (“−” indicates less than 50% inhibition at 10 μM) | − (“−” indicates less than 50% inhibition at 10 μM) | − (“−” indicates less than 50% inhibition at 10 μM) | – |
| COC[C@H]1OC(OCc2cccc(O)c2)[C@H](NC(=O)CCCN)[C@@H](OCc2ccc(-c3ccccc3)cc2)[C@@H]1O (stereo partly shown) [compound 143] | − (“−” indicates less than 50% inhibition at 10 μM) | − (“−” indicates less than 50% inhibition at 10 μM) | − (“−” indicates less than 50% inhibition at 10 μM) | − (“−” indicates less than 50% inhibition at 10 μM) | − (“−” indicates less than 50% inhibition at 10 μM) | − (“−” indicates less than 50% inhibition at 10 μM) | + (“+” indicates greater than 50% inhibition at 10 μM) | + (“+” indicates greater than 50% inhibition at 10 μM) | − (“−” indicates less than 50% inhibition at 10 μM) | − (“−” indicates less than 50% inhibition at 10 μM) | − (“−” indicates less than 50% inhibition at 10 μM) | – |
| COC[C@H]1OC(OCCc2ccccc2)[C@H](NC(=O)CCCN)[C@@H](OCc2cccc(O)c2)[C@@H]1O (stereo partly shown) [compound 140] | − (“−” indicates less than 50% inhibition at 10 μM) | − (“−” indicates less than 50% inhibition at 10 μM) | − (“−” indicates less than 50% inhibition at 10 μM) | − (“−” indicates less than 50% inhibition at 10 μM) | − (“−” indicates less than 50% inhibition at 10 μM) | − (“−” indicates less than 50% inhibition at 10 μM) | − (“−” indicates less than 50% inhibition at 10 μM) | + (“+” indicates greater than 50% inhibition at 10 μM) | − (“−” indicates less than 50% inhibition at 10 μM) | − (“−” indicates less than 50% inhibition at 10 μM) | − (“−” indicates less than 50% inhibition at 10 μM) | – |
